Experimental data: US12195490B2, “STRAD-binding agents and uses thereof” (The Regents of the University of California, priority 2020, dated 2025)

What follows are molecules tested against T1, LKB1 (Homo sapiens, UniProt Q15831+Q7RTN6) (assay: in vitro LKB1 functional activity). Conditions: APA analogs.
T1 sequence (Q15831 1-433): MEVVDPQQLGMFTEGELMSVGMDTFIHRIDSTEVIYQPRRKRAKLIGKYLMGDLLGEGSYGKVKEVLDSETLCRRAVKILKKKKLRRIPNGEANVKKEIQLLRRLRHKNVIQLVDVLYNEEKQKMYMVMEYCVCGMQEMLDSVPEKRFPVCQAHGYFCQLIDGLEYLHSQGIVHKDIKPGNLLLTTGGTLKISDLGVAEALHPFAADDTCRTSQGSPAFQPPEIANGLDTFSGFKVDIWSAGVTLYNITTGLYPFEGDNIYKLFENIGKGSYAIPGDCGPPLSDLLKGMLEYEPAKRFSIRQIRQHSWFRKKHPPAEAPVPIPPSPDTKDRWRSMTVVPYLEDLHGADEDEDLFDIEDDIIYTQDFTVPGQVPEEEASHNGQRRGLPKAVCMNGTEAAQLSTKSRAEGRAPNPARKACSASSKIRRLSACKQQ
T1 sequence (Q7RTN6 1-431): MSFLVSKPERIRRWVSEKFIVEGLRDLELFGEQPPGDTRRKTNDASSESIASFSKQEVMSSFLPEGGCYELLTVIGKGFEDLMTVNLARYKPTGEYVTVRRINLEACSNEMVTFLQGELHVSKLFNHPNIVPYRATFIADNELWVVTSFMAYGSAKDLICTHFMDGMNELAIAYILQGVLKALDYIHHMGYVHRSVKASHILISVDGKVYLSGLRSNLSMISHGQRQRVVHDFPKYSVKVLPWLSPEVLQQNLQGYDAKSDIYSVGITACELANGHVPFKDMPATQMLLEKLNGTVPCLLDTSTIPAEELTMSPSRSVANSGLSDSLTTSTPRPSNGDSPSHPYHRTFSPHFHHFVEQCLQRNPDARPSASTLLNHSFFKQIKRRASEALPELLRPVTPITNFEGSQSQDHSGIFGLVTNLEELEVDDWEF
T1 sequence (Q9Y376 1-341 partner): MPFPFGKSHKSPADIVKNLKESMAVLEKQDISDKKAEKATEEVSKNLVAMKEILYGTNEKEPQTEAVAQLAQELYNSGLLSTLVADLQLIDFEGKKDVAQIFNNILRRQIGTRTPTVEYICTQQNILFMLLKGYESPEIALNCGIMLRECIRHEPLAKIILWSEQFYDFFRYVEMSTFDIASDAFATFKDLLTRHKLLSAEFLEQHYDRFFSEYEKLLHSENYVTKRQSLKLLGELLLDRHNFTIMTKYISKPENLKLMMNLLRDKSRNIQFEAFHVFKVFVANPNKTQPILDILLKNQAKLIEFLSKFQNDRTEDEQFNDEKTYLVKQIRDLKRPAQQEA
Type: biochemical

Compound	LKB1 % Act. Increase
COc1cc(F)c(-c2cnc(N)c(C(=O)Nc3ccc(S(=O)(=O)NC(C)=O)cc3)n2)c(F)c1 [SU20668-0375, N-(4-(N-acetylsulfamoyl)phenyl)-3-amino-6-(2,6-difluoro-4-methoxyphenyl)pyrazine-2-carboxamide]	D (D=<1000%)
COC(=O)c1ccc(NC(=O)c2nc(-c3ccc(C)cc3)cnc2N)cc1F [SU20668-0307, methyl 4-(3-amino-6-p-tolylpyrazine-2-carboxamido)-2-fluorobenzoate]	D (D=<1000%)
Cc1ccc(-c2cnc(N)c(C(=O)Nc3ccc(S(=O)(=O)NS(C)(=O)=O)cc3)n2)cc1 [SU20668-0470, 3-amino-N-(4-(N-(methylsulfonyl)sulfamoyl)phenyl)-6-p-tolylpyrazine-2-carboxamide]	D (D=<1000%)
COP(=O)(CS(=O)(=O)c1ccc(NC(=O)c2nc(-c3cc(F)ccc3C#N)cnc2N)cc1)OC [SU20668-0446, dimethyl (4-(3-amino-6-(2-cyano-5-fluorophenyl)pyrazine-2-carboxamido)phenylsulfonyl)methylphosphonate]	D (D=<1000%)
Cc1ccc(-c2cnc(N)c(C(=O)Nc3ccc(CC(=O)O)cc3)n2)cc1 [SU20668-0330, 2-(4-(3-amino-6-p-tolylpyrazine-2-carboxamido)phenyl)acetic acid]	C (C=199-1000%)
Cc1ccc(-c2cnc(N)c(C(=O)Nc3ccc(S(=O)(=O)NC(=O)CCOCc4ccccc4)cc3)n2)cc1 [SU20668-0368, 3-amino-N-(4-(N-(3-(benzyloxy)propanoyl)sulfamoyl)phenyl)-6-p-tolylpyrazine-2-carboxamide]	D (D=<1000%)
CC(=O)NS(=O)(=O)c1ccc(NC(=O)c2nc(-c3cnc(N)nc3)cnc2N)cc1 [SU20668-0372, N-(4-(N-acetylsulfamoyl)phenyl)-3-amino-6-(2-aminopyrimidin-5-yl)pyrazine-2-carboxamide]	D (D=<1000%)
CCNP(=O)(CS(=O)(=O)c1ccc(NC(=O)c2nc(-c3ccc(C)cc3)cnc2N)cc1)OCC (stereo not drawn) [SU20668-0480, ethyl P-(4-(3-amino-6-p-tolylpyrazine-2-carboxamido)phenylsulfonyl)methyl-N-ethylphosphonamidate]	D (D=<1000%)
CC(=O)NS(=O)(=O)c1ccc(NC(=O)c2nc(-c3ccc(S(N)(=O)=O)cc3)cnc2N)cc1 [SU20668-0351, N-(4-(N-acetylsulfamoyl)phenyl)-3-amino-6-(4-sulfamoylphenyl)pyrazine-2-carboxamide]	C (C=199-1000%)
CC(=O)Nc1ccc(-c2cnc(N)c(C(=O)Nc3ccc(S(=O)(=O)NC(C)=O)cc3)n2)cc1 [SU20668-0346, 6-(4-acetamidophenyl)-N-(4-(N-acetylsulfamoyl)phenyl)-3-aminopyrazine-2-carboxamide]	C (C=199-1000%)
CC(=O)NS(=O)(=O)c1ccc(NC(=O)c2nc(-c3ccc(C4CCCN4)cc3)cnc2N)cc1 (stereo not drawn) [SU20668-0340, N-(4-(N-acetylsulfamoyl)phenyl)-3-amino-6-(4-(pyrrolidin-2-yl)phenyl)pyrazine-2-carboxamide]	D (D=<1000%)
CC(=O)NS(=O)(=O)c1ccc(NC(=O)c2nc(-c3ccc(OC(F)(F)F)cc3)cnc2N)cc1 [SU20668-0392, N-(4-(N-acetylsulfamoyl)phenyl)-3-amino-6-(4-(trifluoromethoxy)phenyl)pyrazine-2-carboxamide]	D (D=<1000%)
Cc1ccc(-c2cnc(N)c(C(=O)Nc3ccc(NS(C)(=O)=O)cc3)n2)cc1 [SU20668-0281]	D (D=<1000%)
Cc1ccc(-c2cnc(N)c(C(=O)Nc3ccc(CS(N)(=O)=O)cc3)n2)cc1 [SU20668-0331, 3-amino-N-(4-(sulfamoylmethyl)phenyl)-6-p-tolylpyrazine-2-carboxamide]	C (C=199-1000%)
CC(=O)NS(=O)(=O)c1ccc(NC(=O)c2nc(-c3csc4ccccc34)cnc2N)cc1 [SU20668-0376, N-(4-(N-acetylsulfamoyl)phenyl)-3-amino-6-(benzo[b]thiophen-3-yl)pyrazine-2-carboxamide]	C (C=199-1000%)
Cc1ccc(-c2cnc(N)c(C(=O)Nc3ccc(S(N)(=O)=O)nc3)n2)cc1 [SU20668-0304, 3-amino-N-(6-sulfamoylpyridin-3-yl)-6-p-tolylpyrazine-2-carboxamide]	D (D=<1000%)
Cc1ccc(-c2cnc(N)c(C(=O)Nc3ccc(C(=O)O)cc3)n2)cc1 [SU20668-0279, 4-(3-amino-6-p-tolylpyrazine-2-carboxamido)benzoic acid]	C (C=199-1000%)
CC(=O)NS(=O)(=O)c1ccc(NC(=O)c2nc(-c3cccc(N4CCOCC4)c3)cnc2N)cc1 [SU20668-0377, N-(4-(N-acetylsulfamoyl)phenyl)-3-amino-6-(3-morpholinophenyl)pyrazine-2-carboxamide]	D (D=<1000%)
CCC(=O)NS(=O)(=O)c1ccc(NC(=O)c2nc(-c3ccc(C)cc3)cnc2N)cc1 [SU20668-0325, 3-amino-N-(4-(N-propionylsulfamoyl)phenyl)-6-p-tolylpyrazine-2-carboxamide]	C (C=199-1000%)
CCOP(=O)(OCC)C(C)(C)S(=O)(=O)c1ccc(NC(=O)c2nc(-c3ccc(C)cc3)cnc2N)cc1 [SU20668-0486, diethyl 2-(4-(3-amino-6-p-tolylpyrazine-2-carboxamido)phenylsulfonyl)propan-2-ylphosphonate]	B (B=399-2000%)
Cc1ccc(-c2cnc(N)c(C(=O)Nc3ccc(S(=O)(=O)CP(C)(C)=O)cc3)n2)cc1 [SU20668-0492, 3-amino-N-[4-(dimethylphosphorylmethylsulfonyl)phenyl]-6-(p-tolyl)pyrazine-2-carboxamide]	B (B=399-2000%)
CC(=O)NS(=O)(=O)c1ccc(NC(=O)c2nc(-c3ccc(N4CCN(C)CC4)cc3)cnc2N)cc1 [SU20668-0347, N-(4-(N-acetylsulfamoyl)phenyl)-3-amino-6-(4-(4-methylpiperazin-1-yl)phenyl)pyrazine-2-carboxamide]	C (C=199-1000%)
CCOC(=O)CS(=O)(=O)c1ccc(NC(=O)c2nc(-c3ccc(C)cc3)cnc2N)cc1 [SU20668-0311, ethyl 2-(4-(3-amino-6-p-tolylpyrazine-2-carboxamido)phenylsulfonyl)acetate]	C (C=199-1000%)
Cc1ccc(-c2cnc(N)c(C(=O)Nc3ccc(S(C)(=N)=O)cc3)n2)cc1 (stereo not drawn) [SU20668-0490]	C (C=199-1000%)
CCP(=O)(CC)CS(=O)(=O)c1ccc(NC(=O)c2nc(-c3ccc(C)cc3)cnc2N)cc1 [SU20668-0491, 3-amino-N-(4-((diethylphosphoryl)methylsulfonyl)phenyl)-6-p-tolylpyrazine-2-carboxamide]	B (B=399-2000%)
Cc1ccc(-c2cnc(N)c(C(=O)Nc3ccc(C(N)=O)cc3)n2)cc1 [SU20668-0280, 3-amino-N-(4-carbamoylphenyl)-6-p-tolylpyrazine-2-carboxamide]	D (D=<1000%)
CC(=O)NS(=O)(=O)c1ccc(NC(=O)c2nc(-c3ccc4cn[nH]c4c3)cnc2N)cc1 [SU20668-0343, N-(4-(N-acetylsulfamoyl)phenyl)-3-amino-6-(1H-indazol-6-yl)pyrazine-2-carboxamide]	C (C=199-1000%)
Cc1ccc(-c2cnc(N)c(C(=O)Nc3ccc(S(=O)(=O)NC(=O)CCc4ccccc4)cc3)n2)cc1 [SU20668-0328, 3-amino-N-(4-(N-(3-phenylpropanoyl)sulfamoyl)phenyl)-6-p-tolylpyrazine-2-carboxamide]	D (D=<1000%)
Cc1ccc(-c2cnc(N)c(C(=O)Nc3ccc(C(=O)O)c(F)c3)n2)cc1 [SU20668-0299, 4-(3-amino-6-p-tolylpyrazine-2-carboxamido)-2-fluorobenzoic acid]	D (D=<1000%)
Cc1ccc(-c2cnc(N)c(C(=O)Nc3ccc(C(=O)OC(C)(C)C)c(F)c3)n2)cc1 [SU20668-0308, tert-butyl 4-(3-amino-6-p-tolylpyrazine-2-carboxamido)-2-fluorobenzoate]	C (C=199-1000%)
